Source: patent US11884647B2, “Compounds and methods for targeting pathogenic blood vessels” (THE REGENTS OF THE UNIVERSITY OF CALIFORNIA, priority 2019, dated 2024)

Test system: tumor endothelial cells (LL/2 lung cancer tumor)
Test: Lung LL2 ex vivo model of tumor angiogenesis
Format: cell-based, mouse
Settings: Lung LL2 ex vivo; Conc. 40 μm; (rim)
Description: This example describes a procedure to prepare a primary tumor angiogenesis model for assessing the efficacy of anti-cancer candidate agents.
1. The day before the experiment, spray all necessary tools with 70% ethanol and sterilize them under UV light overnight, including blade, dissecting and micro-dissecting scissors and […]. Place 24-well dishes at 4° C. to pre-chill plates and thaw Matrigel 24 hours before tumor dissection.
2. Spray 70% ethanol on working bench. Prepare two sterile petri dishes with 10 mL sterile PBS. Steps 3 and 4 are for mouse tumor models. For fresh human tumor, directly go to step 5.
3. Euthanize the tumor-bearing mice. Spray 70% ethanol on the mouse and remove the tumor using sterilized dissecting tools (avoid the fur). Rinse the tumor in petri dish with sterile PBS to remove ethanol and fur. Transfer the tumor to a new petri dish with PBS for dissection. Place the dish on ice.
4. Using pre-chilled sterile pipet tips to seed regular Matrigel in 24 well plates on ice. Matrigel (30 μL) is dropped in the middle of each well without touching the edge of the well (avoid introducing bubbles if possible).
5. Cut the tumor in halves using the sterile blade. Identify and isolate healthy tumor tissue that is not necrotic and is within the tumor capsule. Cut the healthy tumor tissue into small pieces. For instance, a suitable size for the tumor tissue is 0.5 mm (H)×0.5 mm (L)×0.3 mm (D) with a total volume of 0.075 mm^3.
6. Gently transfer and embed each tumor piece in the Matrigel drop in the 24-well plate. Place the embedded piece in the bottom and middle of each Matrigel drop. Keep the plate on ice all the time.
7. After seeding the tumor pieces, plates are incubated in a 37° C. cell culture incubator without medium for 10 minutes in order for the Matrigel to solidify.
8. Endothelial Growth Medium (0.5 mL) is added to each well and incubated at 37° C. with 5% CO2. Wait until the new endothelial cells have grown out of the tumor or are larger than 3 mm in diameter until treatment. This usually takes 4 days for the LL2 Lewis lung cancer model and 7 days for the CT26 colon cancer model. For human tumor models, the growth time is typically 2-3 weeks, depending on the tumor type. Media is changed every 4 days during prolonged culture. Typically, when the tumor tissue grows to 2 mm in diameter, it is good for drug testing. A size of about 3 mm in diameter can make visualization easier.
9. When the assay is ready to be analyzed for cell death (e.g., 48 hours after drug addition), prepare the dye mixture by mixing 6 μL of green dye to stain live cells (5 mg/mL Fluorescein diacetate or FDA in DMSO) with 30 μL of red dye (2.5 mg/mL Propidium iodide or PI in PBS) to stain dead cells in an Eppendorf tube. The FDA dye needs to be stored frozen in a −20° C. freezer because it has a labile ester bond.
10. Add 1 μL of the dye mixture to each well of the 24-well dish. It is usually performed one 24-well dish at a time given the amount of time needed to take pictures (the green dye is not as stable in the cells in the long term).
11. Gently rock the dish a few times to mix the dye with the media in the wells and incubate the dish at 37° C. for 10 min (too long incubation can make the green signal too intense).
12. Wash each well with 0.5 mL of sterile PBS and then add 0.5 mL of phenol red free SFM to each well. Alternatively 0.5 mL of regular Endothelial Cell Growth Media can be added to each well if this well needs to be continuously maintained after the experiment.
13. Look through all wells on an inverted microscope using the 2× objective lens to observe morphological changes.
14. Taking pictures in the red and green channels would allow not only the recording of the result but also more accurate quantitation of the result. To take pictures for all the wells, first pick a well that has robust red and green signals. […]

| SMILES | Cell death (rim) [%] |
| --- | --- |
| CCCCCCCOc1ccc(S(=O)(=O)c2cnc3ccc(SC)cc3c2N2CCC(N3CCC(O)CC3)CC2)cc1 [compound 223, 1′-(3-((4-(heptyloxy)phenyl)sulfonyl)-6-(methylthio)quinolin-4-yl)-[1,4′-bipiperidin]-4-ol] | 30 |

Same assay, conditions: Lung LL2 ex vivo; Conc. 40 μm; drug treatment two days

| SMILES | Cell death [%] |
| --- | --- |
| CCCCOc1ccc(S(=O)(=O)c2cnc3ccc(C(=O)NC4C(O)O[C@H](CO)[C@@H](O)[C@@H]4O)cc3c2N2CCCN(C)CC2)cc1 (stereo partly drawn) [compound 193, 3-((4-butoxyphenyl)sulfonyl)-4-(4-methyl-1,4-diazepan-1-yl)-N-((4R,5S,6R)-2,4,5-trihydroxy-6-(hydroxymethyl)tetrahydro-2H-pyran-3-yl)quinoline-6-carboxamide] | 30 |
| CCCCOc1ccc(S(=O)(=O)c2cnc3ccc(C(=O)NCCO)cc3c2N2CCCN(C)CC2)cc1 [compound 200, 3-((4-butoxyphenyl)sulfonyl)-N-(2-hydroxyethyl)-4-(4-methyl-1,4-diazepan-1-yl)quinoline-6-carboxamide] | 30 |
| CCCCOc1ccc(S(=O)(=O)c2cnc3ccc(C(=O)OCC)cc3c2N2CCN(c3ccc(F)cc3)CC2)cc1 [compound 213, ethyl 3-((4-butoxyphenyl)sulfonyl)-4-(4-(4-fluorophenyl)piperazin-1-yl)quinoline-6-carboxylate] | 30 |

Same assay, conditions: Mus musculus, Endothelial cell, 48 h, read-out: Cell death

| SMILES | cytotoxicity at 40 µM [%] | cytotoxicity at 10 µM [%] |
| --- | --- | --- |
| CCOC(=O)c1ccc2ncc(S(=O)(=O)c3ccc(OC)cc3)c(N3CCC(N4CCN(C)CC4)CC3)c2c1 [compound 171, ethyl 3-((4-methoxyphenyl)sulfonyl)-4-(4-(4-methylpiperazin-1-yl)piperidin-1-yl)quinoline-6-carboxylate] | 40 | – |
| CCCCOc1ccc(S(=O)(=O)c2cnc3ccc(C(=O)OCC)cc3c2N2CCC(N3CCN(C)CC3)CC2)cc1 [compound 172, ethyl 3-((4-butoxyphenyl)sulfonyl)-4-(4-(4-methylpiperazin-1-yl)piperidin-1-yl)quinoline-6-carboxylate] | 100 | – |
| CCOC(=O)c1ccc2ncc(S(=O)(=O)c3ccc(OC)cc3)c(N3CCC(N4CCCCCC4)CC3)c2c1 [compound 173, ethyl 4-(4-(azepan-1-yl)piperidin-1-yl)-3-((4-methoxyphenyl)sulfonyl)quinoline-6-carboxylate] | 50 | – |
| CCOC(=O)c1ccc2ncc(S(=O)(=O)c3ccc(OC)cc3)c(N3CCC(N4CCCC(O)C4)CC3)c2c1 (centres unmarked) [compound 174, ethyl 4-(3-hydroxy-[1,4′-bipiperidin]-1′-yl)-3-((4-methoxyphenyl)sulfonyl)quinoline-6-carboxylate] | 30 | – |
| CCOC(=O)c1ccc2ncc(S(=O)(=O)c3ccc(OC)cc3)c(N3CCC(N4CCC(CO)CC4)CC3)c2c1 [compound 175, ethyl 4-(4-(hydroxymethyl)-[1,4′-bipiperidin]-1′-yl)-3-((4-methoxyphenyl)sulfonyl)quinoline-6-carboxylate] | 30 | – |
| CCCCOc1ccc(S(=O)(=O)c2cnc3ccc(C(=O)OCC)cc3c2N2CCC(N3CCCCCC3)CC2)cc1 [compound 176, ethyl 4-(4-(azepan-1-yl)piperidin-1-yl)-3-((4-butoxyphenyl)sulfonyl)quinoline-6-carboxylate] | 100 | – |
| CCCCOc1ccc(S(=O)(=O)c2cnc3ccc(C(=O)OCC)cc3c2N2CCC(N3CCCC(O)C3)CC2)cc1 (centres unmarked) [compound 177, ethyl 3-((4-butoxyphenyl)sulfonyl)-4-(3-hydroxy-[1,4′-bipiperidin]-1′-yl)quinoline-6-carboxylate] | 100 | – |
| CCCCOc1ccc(S(=O)(=O)c2cnc3ccc(C(=O)OCC)cc3c2N2CCC(N3CCC(CO)CC3)CC2)cc1 [compound 178, ethyl 3-((4-butoxyphenyl)sulfonyl)-4-(4-(hydroxymethyl)-[1,4′-bipiperidin]-1′-yl)quinoline-6-carboxylate] | 100 | – |
| CCOC(=O)c1ccc2ncc(S(=O)(=O)c3ccc(OC)cc3)c(N3CCCN(CCN4CCCCC4)CC3)c2c1 [compound 179, ethyl 3-((4-methoxyphenyl)sulfonyl)-4-(4-(2-(piperidin-1-yl)ethyl)-1,4-diazepan-1-yl)quinoline-6-carboxylate] | – | 60 |
| CCOC(=O)c1ccc2ncc(S(=O)(=O)c3ccc(OC)cc3)c(N3CCCN(CCN4CCCC4)CC3)c2c1 [compound 180, ethyl 3-((4-methoxyphenyl)sulfonyl)-4-(4-(2-(pyrrolidin-1-yl)ethyl)-1,4-diazepan-1-yl)quinoline-6-carboxylate] | – | 70 |
| CCCCOc1ccc(S(=O)(=O)c2cnc3ccc(C(=O)OCC)cc3c2N2CCCN(CCN3CCCCC3)CC2)cc1 [compound 181, ethyl 3-((4-butoxyphenyl)sulfonyl)-4-(4-(2-(piperidin-1-yl)ethyl)-1,4-diazepan-1-yl)quinoline-6-carboxylate] | 100 | – |
| CCCCOc1ccc(S(=O)(=O)c2cnc3ccc(C(=O)OCC)cc3c2N2CCCN(CCN3CCCC3)CC2)cc1 [compound 182, ethyl 3-((4-butoxyphenyl)sulfonyl)-4-(4-(2-(pyrrolidin-1-yl)ethyl)-1,4-diazepan-1-yl)quinoline-6-carboxylate] | 100 | – |
| CCOC(=O)c1ccc2ncc(S(=O)(=O)c3ccc(OC)cc3)c(-n3cncn3)c2c1 [compound 183, ethyl 3-((4-methoxyphenyl)sulfonyl)-4-(1H-1,2,4-triazol-1-yl)quinoline-6-carboxylate] | – | 100 |
| CCOC(=O)c1ccc2ncc(S(=O)(=O)c3ccc(OC)cc3)c(-n3ccnn3)c2c1 [compound 184, ethyl 3-((4-methoxyphenyl)sulfonyl)-4-(1H-1,2,3-triazol-1-yl)quinoline-6-carboxylate] | – | 5 |
| CCOC(=O)c1ccc2ncc(S(=O)(=O)c3ccc(OC)cc3)c(-n3cnnn3)c2c1 [compound 185, ethyl 3-((4-methoxyphenyl)sulfonyl)-4-(1H-tetrazol-1-yl)quinoline-6-carboxylate] | – | 30 |
| CCCCOc1ccc(S(=O)(=O)c2cnc3ccc(C(=O)OCC)cc3c2-n2cnnn2)cc1 [compound 186, ethyl 3-((4-butoxyphenyl)sulfonyl)-4-(1H-tetrazol-1-yl)quinoline-6-carboxylate] | – | 90 |
| CCCCOc1ccc(S(=O)(=O)c2cnc3ccc(OC(F)(F)F)cc3c2N2CCSCC2)cc1 [compound 187, 4-(3-((4-butoxyphenyl)sulfonyl)-6-(trifluoromethoxy)quinolin-4-yl)thiomorpholine] | 30 | – |
| CCCCOc1ccc(S(=O)(=O)c2cnc3ccc(C(=O)OCC)cc3c2N2CCS(=O)(=O)CC2)cc1 [compound 196, ethyl 3-((4-butoxyphenyl)sulfonyl)-4-(1,1-dioxidothiomorpholino)quinoline-6-carboxylate] | 30 | – |
| CCCCOc1ccc(S(=O)(=O)c2cnc3ccc(OC(F)(F)F)cc3c2N2CC[S+]([O-])CC2)cc1 [compound 197, 4-(3-((4-butoxyphenyl)sulfonyl)-6-(trifluoromethoxy)quinolin-4-yl)thiomorpholine 1-oxide] | 20 | – |
| CCCCOc1ccc(S(=O)(=O)c2cnc3ccc(OC(F)(F)F)cc3c2N2CCS(=O)(=O)CC2)cc1 [compound 198, 4-(3-((4-butoxyphenyl)sulfonyl)-6-(trifluoromethoxy)quinolin-4-yl)thiomorpholine 1,1-dioxide] | 30 | – |
| CCCCOc1ccc(S(=O)(=O)c2cnc3ccc(C(=O)N(CC)CC)cc3c2N2CCCN(C)CC2)cc1 [compound 199, 3-((4-butoxyphenyl)sulfonyl)-N,N-diethyl-4-(4-methyl-1,4-diazepan-1-yl)quinoline-6-carboxamide] | 30 | – |
| CCCCOc1ccc(S(=O)(=O)c2cnc3ccc(C(=O)OCC)cc3c2N2CCC(N3CCSCC3)CC2)cc1 [compound 217, ethyl 3-((4-butoxyphenyl)sulfonyl)-4-(4-thiomorpholinopiperidin-1-yl)quinoline-6-carboxylate] | 30 | – |
